From patent US10111897B2, “Compositions and methods for treating cancer with JAK2 activity” (Duke University, priority 2013, dated 2018)

Assays:
[1] = system: Set2 cells; assay: GI50 assay (Cell Titer Glo viability); format: cell-based, human; conditions: for sensitivity of parental and engineered Ras effector-activated cells (relative proliferation): Set2 ORF-expressing derivatives; for sensitization of resistant and parental Set2 cells to JAK inhibitors, co-inhibition of Akt and ERK pathways: MK-2206 plus AZD-6244 (2 μM) plus respective JAK inhibitor
Protocol: (§1) Cells were seeded into 6-well plates and infected with the desired ORF activating allele or control vector. Lentiviruses were produced and applied as previously described (42). Following two days of puromycin selection (2 μg/ml), infected cells were seeded into 96-well plates at 5,000 cells/well.
(§2) To generate […] curves, cells were treated with vehicle (DMSO) or an eight-log serial dilution of drug to yield final concentrations of […]. Each treatment condition was represented by at least three replicates. Three to four days after drug addition, cell viability was measured using Cell Titer Glo® (Promega). Relative viability was then calculated by normalizing luminescence values for each treatment condition to control treated wells.
(§3) To generate GI50 curves for drug combinations, slight modifications are made. Primary drug was applied and diluted as above while the second drug was kept at a constant concentration across all wells except the DMSO-only condition. Viability for all primary drug dilutions was then calculated relative to luminescence values from the secondary drug-only condition. Dose-response curves were fit using Graph pad/Prism 6 software.

[2] = system: HEL92.1.7 cells; assay: GI50 assay (Cell Titer Glo viability); format: cell-based, human; conditions: for sensitivity of parental and engineered Ras effector-activated cells (viability and apoptosis): HEL92.1.7 ORF-expressing derivatives, apoptosis at 48 hours; for resensitization of Ras-expressing cells to INCB, dual ERK and Akt inhibition: INCB with both VX-11E (2 μM) and MK-2206 (10 μM)
Protocol: as §1, §2, §3

[3] = JAK inhibitor combined with ABT-737; cited from earlier work
[4] = system: multiple JAK2^V617F cell lines; conditions: parental JAK2^V617F cell lines (HEL92.1.7 72 h, Set2 24 h)
Excerpt: Error bars indicate SD of three replicate experiments. (B) Digitonin-permeabilized HEL92.1.7 cells transduced with the indicated constructs were stained with the mitochondrial potential-sensitive JC1 dye and treated with a panel of BH3 peptides. Percent depolarization is shown as the area under the curve (AUC) normalized to positive control fully depolarized mitochondria (FCCP). DMSO serves as the negative control. Data shown are representative of three independent experiments for each cell line derivative. (C) Same as in (B) except in this case the indicated JAK2^V617F positive cell lines were profiled to query their apoptotic dependencies. […] Blots are representative of three replicate experiments. (E) Twenty-four hours after transduction with the indicated ORFs, HMLE and HEL92.1.7 cells were stained with 7AAD and Annexin V to measure induction of apoptosis. Error bars indicate SD of three replicate experiments.
Cells were seeded in six-well plates and treated with either the indicated amount of drug or vehicle (DMSO). Cells were incubated for the indicated time, washed twice with ice-cold PBS, and resuspended in IX Annexin V binding buffer (10 mM HEPES, 140 mM NaCl, 2.5 mM CaCl2; BD Biosciences). Surface exposure of phosphatidylserine was measured using APC-conjugated Annexin V (BD Biosciences). […] Experiments were analyzed at 20,000 counts/sample using BD FACSVantage SE. […]

[5] = system: BAD; assay: BAD phosphorylation immunoblot in HEL92.1.7 derivatives; format: cell-based, human; conditions: Ras (G12V)-transduced HEL92.1.7, 6 hours of treatment
Protocol: FIG. 10. BAD activity, governed by phosphorylation status at Ser 112 and 136, dictates drug sensitivity and induction of apoptosis in both the drug-sensitive and resistant state. (A-C) After 6 hours of treatment with the specified drugs, protein lysates were prepared from either myr-Akt-transduced HEL92.1.7 (A), Ras (G12V)-transduced HEL92.1.7 (B), Set2-Parental, or Set2-CYTR cells (C) and immunoblotted with the indicated antibodies. Blots are representative of three replicate experiments. […] (E, F) HEL92.1.7 derivatives stably expressing the indicated ORFs were transduced with a second ORF expressing either a second control vector or BAD2SA. (E) Twenty-four hours after selection, cells were stained with 7AAD and Annexin V to measure the induction of apoptosis. Error bars indicate SD of three replicate experiments.
Immunoblotting was performed as previously described (42) and membranes were probed with primary antibodies (1:1000 dilution) recognizing p-STAT5, STAT5, p-STAT3, STAT3, BAD, p-BAD Ser112, p-BAD Ser136, p-Akt (Thr308), Akt, p-ERK1/2 (Thr202/Tyr204), ERK1/2, Pim1, BCL-XL, BCL-2, MCL-1, Bim, Bax, Bak, NaATPase, and β-Actin. All antibodies were purchased from Cell Signaling Technology.

[6] = patients suffering from MPNs; cited from earlier work

| SMILES | sensitivity of parental and engineered Ras effector-activated cells (relative proliferation) [1] | sensitivity of parental and engineered Ras effector-activated cells (viability and apoptosis) [2] | resensitization of Ras-expressing cells to INCB, dual ERK and Akt inhibition [2] | sensitization of resistant and parental Set2 cells to JAK inhibitors, co-inhibition of Akt and ERK pathways [1] | also measured |
| --- | --- | --- | --- | --- | --- |
| CN(C)CC[C@H](CSc1ccccc1)Nc1ccc(S(=O)(=O)NC(=O)c2ccc(N3CCN(Cc4ccccc4-c4ccc(Cl)cc4)CC3)cc2)cc1[N+](=O)[O-] [ABT-737] | sensitive | sensitive |  |  | sensitivity of independently evolved JAK inhibitor-resistant cells compared to matched parental cells ([1]; Set2-INCBR and Set2-CYTR vs Set2-Parental): equally sensitive; responses relative to JAK inhibitor monotherapy [3]: improved responses |
| Cc1cnc(Nc2ccc(F)cc2Cl)nc1-c1c[nH]c(C(=O)N[C@H](CO)c2cccc(Cl)c2)c1 [VX-11E] |  |  | resensitized |  |  |
| N#CC[C@H](C1CCCC1)n1cc(-c2ncnc3[nH]ccc23)cn1 [INCB] |  |  |  |  | induction of apoptosis (Annexin-V staining) [4]: induces apoptosis; BAD phosphorylation at Ser 112 and 136 in Ras-expressing cells [5]: remained phosphorylated; patients with transient reduction of spleen size and alleviation of some symptoms [6]: about 50 % of patients |
| NC1(c2ccc(-c3nc4ccn5c(=O)[nH]nc5c4cc3-c3ccccc3)cc2)CCC1 [MK-2206] |  |  | resensitized | further sensitized | resensitization of Set2-CYTR and Set2-INCBR cells to JAK inhibitors ([1]; Akt inhibition with MK-2206 plus respective JAK inhibitor, compared with parental GI50 values): resensitized; resensitization of Akt-expressing cells to INCB ([2]; INCB plus second drug at constant concentration (MK-2206 10 μM; BEZ-235 0.2 μM)): fully resensitized |
| Cn1cnc2c(F)c(Nc3ccc(Br)cc3Cl)c(C(=O)NOCCO)cc21 [AZD-6244] |  |  |  | further sensitized |  |
| CC1(C)CCC(CN2CCN(c3ccc(C(=O)NS(=O)(=O)c4ccc(NCC5CCOCC5)c([N+](=O)[O-])c4)c(Oc4cnc5[nH]ccc5c4)c3)CC2)=C(c2ccc(Cl)cc2)C1 [ABT-199] | insensitive | insensitive |  |  |  |
